Entries after “also recorded” stand apart in the source; their conditions may differ. Read-outs that look alike come from different tables or passages of the source.
Columns and labels:
[1] = molecular target: T1, E. coli FabF (β-ketoacyl-ACP synthase II) (Escherichia coli, UniProt P0AAI5); experiment: FabF radiochemical condensing enzyme assay with myristoyl-ACP; type: biochemical
T1 construct: made in house
Method: (§1) FabB and FabF radiochemical assay was performed using the scheme devised by Garwin et al. (11) using myristoyl-ACP as the substrate. The assays contained 100 μM ACP, 0.3 mM dithiothreitol, 1 mM EDTA, 0.1 M potassium phosphate buffer, pH 6.8, 50 μM [^14C]malonyl-CoA (specific activity 55 Ci/mole), 100 μM myristoyl-ACP, FabD (0.3 μg of protein), in a final volume of 20 μl. A mixture of ACP, 0.3 mM DTT, 1 mM EDTA, and the buffer was incubated at 37° C. for 30 min to ensure complete reduction ACP, and then the remaining components (except the condensing enzyme) were added. The mixture was then aliquoted into the assay tubes and the reaction was initiated by the addition of FabB or FabF. The reaction mixture was incubated at 37° C. for 20 min, then 400 μl of reducing agent (0.1 M K2HPO4, 0.4 M KCl, 30% tetrahydrofuran, and 5 mg/ml sodium borohydride) was added into the reaction tubes and incubated for 40 min.
(§2) Finally, 400 μl of toluene was added, vigorously mixed, and 300 μl of upper phase solution was counted in 3 ml of scintillation cocktail.

[2] = molecular target: T2, E. coli FabB (β-ketoacyl-ACP synthase I) (Escherichia coli, UniProt P0A953); experiment: FabB radiochemical condensing enzyme assay with myristoyl-ACP; type: biochemical
T2 construct: made in house; host or cells: pET-15b-FabB expression vector; Novagen expression strains
T2 sequence (P0A953 whole entry): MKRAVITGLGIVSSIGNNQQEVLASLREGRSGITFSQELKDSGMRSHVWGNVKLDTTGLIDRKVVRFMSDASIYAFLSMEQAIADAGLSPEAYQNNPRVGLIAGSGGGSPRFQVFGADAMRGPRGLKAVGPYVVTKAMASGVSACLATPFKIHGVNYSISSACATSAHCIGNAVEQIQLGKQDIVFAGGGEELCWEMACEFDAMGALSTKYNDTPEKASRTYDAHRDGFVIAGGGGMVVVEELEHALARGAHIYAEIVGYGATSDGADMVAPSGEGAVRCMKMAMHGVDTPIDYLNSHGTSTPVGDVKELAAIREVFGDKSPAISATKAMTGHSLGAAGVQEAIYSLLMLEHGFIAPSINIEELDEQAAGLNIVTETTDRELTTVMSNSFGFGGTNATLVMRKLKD
Method: as §1, §2

[3] = molecular target: T3, E. coli FabH (β-ketoacyl-ACP synthase III) (Escherichia coli, UniProt P0A6R0); experiment: FabH filter disc assay with [1-14C]acetyl-CoA; type: biochemical
T3 construct: made in house
T3 sequence (P0A6R0 whole entry): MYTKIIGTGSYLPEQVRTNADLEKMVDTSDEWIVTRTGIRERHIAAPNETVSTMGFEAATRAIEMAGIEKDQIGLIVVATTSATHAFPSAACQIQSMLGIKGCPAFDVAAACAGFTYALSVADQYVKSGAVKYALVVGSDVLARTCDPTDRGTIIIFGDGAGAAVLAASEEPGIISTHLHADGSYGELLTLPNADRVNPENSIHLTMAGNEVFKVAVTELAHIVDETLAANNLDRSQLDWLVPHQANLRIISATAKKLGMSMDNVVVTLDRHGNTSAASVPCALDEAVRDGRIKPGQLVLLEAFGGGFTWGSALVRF
Method: A filter disc assay was used to assay FabH activity with [1-^14C]acetyl-CoA as described previously (15,18). The assays contained 100 μM ACP, 1 mM β-mercaptoethanol, 45 μM [^14C]acetyl-CoA (specific activity, 52.0 Ci/mole), and 50 μM malonyl-CoA, E. coli FabD (0.3 μg) and 0.1 M sodium phosphate buffer (pH 7.0) in a final volume of 40 μl. The reaction was initiated by the addition of FabH and the mixture was incubated at 37° C. for 12 min. A 35-μl aliquot was removed and deposited on a Whatman 3MM filter disc. The discs were washed with three changes (20 ml/disc for 20 min) of ice-cold trichloroacetic acid. The concentration of the trichloroacetic acid was reduced from 10 to 5 to 1% in each successive wash. The filters were dried and counted in 3 ml of scintillation cocktail.

FabB = molecular target: T4, FabB (Escherichia coli, UniProt P0A953); experiment: Time course of FabB inhibition (reversibility); type: biochemical; conditions: for Reversibility of FabB inhibition: 20 μM TLM or 3 μM cerulenin, with or without 30 min preincubation
T4 construct: made in house; host or cells: pET-15b-FabB expression vector; Novagen expression strains
T4 sequence (P0A953 whole entry): as the sequence (P0A953 whole entry) above
Method: The time course for the inhibition of FabB activity under five experimental conditions was determined to address the reversibility of the antibiotics. Time course for the FabB reaction in the absence of inhibitors (▾), in the presence of 20 μM TLM (●) or 3 μM cerulenin (∘). FabB was preincubated with either 20 μM TLM (▪) or 3 μM cerulenin (□) for 30 min prior to initiation of the reaction by the addition of the other substrates. FabB activity was measured using the radiochemical assay with myristoyl-ACP as the substrate as described under “Experimental Procedures” in the Example below.
as §1, §2
This hypothesis was examined by comparing the kinetics of TLM inhibition to that of cerulenin (FIG. 2), which is known to form a covalent complex with the active site cysteine of the condensing enzymes. […] This indicates the formation of the irreversible FabB-cerulenin binary complex. The same two types of time course experiments were performed with TLM (FIG. 2A).

B. subtilis FabF = B. subtilis FabF (Bacillus subtilis, UniProt O34340); experiment: Inhibition of B. subtilis FabF in vitro; type: biochemical
Chain of B. subtilis FabF (O34340 whole entry): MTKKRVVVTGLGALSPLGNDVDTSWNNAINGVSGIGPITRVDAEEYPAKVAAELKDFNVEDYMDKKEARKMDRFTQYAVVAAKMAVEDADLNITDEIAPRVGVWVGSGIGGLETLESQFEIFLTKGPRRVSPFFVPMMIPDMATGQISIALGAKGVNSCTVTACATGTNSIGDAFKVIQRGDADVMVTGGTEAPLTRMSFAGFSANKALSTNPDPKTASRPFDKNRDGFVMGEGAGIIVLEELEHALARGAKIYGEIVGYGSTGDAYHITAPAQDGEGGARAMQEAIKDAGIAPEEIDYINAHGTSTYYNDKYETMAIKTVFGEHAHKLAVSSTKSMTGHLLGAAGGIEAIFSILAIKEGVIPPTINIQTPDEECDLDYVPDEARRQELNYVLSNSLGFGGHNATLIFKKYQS

[4] = cited from earlier work
[5] = system: urinary tract and intraperitoneal bacterial infections; conditions: mice; cited from earlier work
FabB[H333N] = molecular target: T5, FabB[H333N] (Escherichia coli, UniProt P0A953, H333N); experiment: FabB[H333N] mutant radiochemical assay with 14:0-ACP primer; type: biochemical; conditions: inhibition by cerulenin
T5 construct: made in house; host or cells: pET-15b-FabB expression vector; Novagen expression strains
T5 sequence (P0A953 1-406 H333N): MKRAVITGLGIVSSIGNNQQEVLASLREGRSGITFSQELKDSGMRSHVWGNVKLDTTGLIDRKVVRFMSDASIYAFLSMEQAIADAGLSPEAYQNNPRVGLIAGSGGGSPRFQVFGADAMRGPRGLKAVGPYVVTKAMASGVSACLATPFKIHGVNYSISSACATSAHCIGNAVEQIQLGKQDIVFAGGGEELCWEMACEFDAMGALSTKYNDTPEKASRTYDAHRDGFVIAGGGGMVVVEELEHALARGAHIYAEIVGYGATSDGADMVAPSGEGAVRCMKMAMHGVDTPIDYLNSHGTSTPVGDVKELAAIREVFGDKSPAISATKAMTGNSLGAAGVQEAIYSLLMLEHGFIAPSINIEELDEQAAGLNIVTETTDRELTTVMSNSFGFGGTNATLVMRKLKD
Method: as §1, §2
Construction of the FabB[H333N] mutant—A portion of the fabB gene was amplified using the polymerase chain reaction with two specific primers. The first primer introduced the desired mutation, and extended over a unique AgeI site (5′-[…]-3′, SEQ ID NO:3). The second primer created a BamHI site downstream of the stop codon (5′-[…]-3′, SEQ ID NO:4). […]

T1 sequence (P0AAI5 whole entry): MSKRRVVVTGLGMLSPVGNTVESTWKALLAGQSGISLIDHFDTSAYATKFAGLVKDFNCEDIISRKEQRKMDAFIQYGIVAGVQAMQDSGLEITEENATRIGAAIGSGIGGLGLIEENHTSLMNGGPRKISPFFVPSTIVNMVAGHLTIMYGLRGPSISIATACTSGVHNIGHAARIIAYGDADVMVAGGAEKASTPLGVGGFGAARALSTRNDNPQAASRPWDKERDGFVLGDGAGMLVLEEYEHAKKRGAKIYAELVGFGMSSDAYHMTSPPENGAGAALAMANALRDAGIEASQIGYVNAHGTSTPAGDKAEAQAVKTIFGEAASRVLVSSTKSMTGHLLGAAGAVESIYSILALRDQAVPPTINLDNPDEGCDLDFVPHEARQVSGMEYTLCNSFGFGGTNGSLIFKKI

For C=C/C(C)=C/C1(C)SC(=O)C(C)=C1O (stereo in doubt) [TLM, (4S)(2E,5E)-2,4,6-trimethyl-3-hydroxy-2,5,7-octatriene-4-thiolide], the IC50 [1] was 6 µM, the IC50 [2] was 25 µM and the IC50 [3] was 110 µM. The “Reversibility of FabB inhibition” value (FabB) was “reversible inhibitor; also recorded: reversibly inhibited”, the “Inhibition of B. subtilis FabF in vitro” value (B. subtilis FabF) was “very weak inhibitor” and the Toxicity to mice [4] was “not toxic”. For the same molecule, the “Protection against urinary tract and intraperitoneal bacterial infections” value [5] was “significant protection”.

With C/C=C/C/C=C/CCC(=O)[C@H]1O[C@H]1C(N)=O [cerulenin, (2R,3S)-2,3-epoxy-4-oxo-7,10-dodecandienolyamide] the IC50 ([1]; purified E. coli enzyme, myristoyl-ACP substrate, read-out: IC50 FabF) was 20 µM, the IC50 ([2]; purified E. coli enzyme, myristoyl-ACP (14:0-ACP) substrate, read-out: IC50 FabB) was 3 µM and the “Sensitivity of FabH to inhibitor” value [3] was “essentially resistant”. The IC50 ([3]; purified E. coli enzyme, acetyl-CoA primer, read-out: IC50 FabH) was > 700 µM, the IC50 (FabB[H333N]) was 30 µM and the “Product formation after preincubation of inhibitor with FabB” value (FabB; 3 μM cerulenin preincubated 30 min, reaction initiated with substrates) was “no discernable product formation”. The “Reversibility of FabB inhibition” value (FabB) was “slow-binding, irreversible inhibitor; also recorded: irreversibly inhibited”.
